Measurements as given in patent US20250235460A1, “COMBINATION THERAPY USING GLUCOSE-DEPENDENT INSULINOTROPIC POLYPEPTIDE RECEPTOR ANTAGONIST COMPOUNDS AND GLP-1 RECEPTOR AGONIST COMPOUNDS” (Pfizer Inc., priority 2024, published 2025).

How the values were obtained:
human GLP-1R [1] = biological target: human GLP-1R (Homo sapiens, UniProt P43220, G168S); test: CHO GLP-1R Clone H6 cAMP HTRF agonist assay (Assay 1, high receptor density); type: cell-based; details: for EC50: CHO GLP-1R clone H6, cAMP HTRF, geometric mean; for Emax: CHO GLP-1R clone H6, arithmetic mean, relative to saturating GLP-1 (1 μM), read-out: Assay 1 Emax (%)
Outline: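 EC50 values are reported as geometric means and Emax as arithmetic means across the listed number of replicates, both given to two significant figures.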

human GLP-1R [2] = biological target: human GLP-1R (Homo sapiens, UniProt P43220, L260F); test: CHO GLP-1R Clone C6 cAMP HTRF agonist assay (Assay 2, low receptor density); type: cell-based; details: for EC50: CHO GLP-1R clone C6, cAMP HTRF, geometric mean; for Emax: CHO GLP-1R clone C6, arithmetic mean, relative to saturating GLP-1 (1 μM)
Description: In Table 5 and Table 6, assay data are presented to two (2) significant figures as the geometric mean (EC50s) and arithmetic mean (Emax) based on the number of replicates listed (Number). A blank cell means there was no data for that Example or the Emax was not calculated.

Chain of human GLP-1R (Homo sapiens, UniProt P43220, L260F) (P43220 24-463 L260F): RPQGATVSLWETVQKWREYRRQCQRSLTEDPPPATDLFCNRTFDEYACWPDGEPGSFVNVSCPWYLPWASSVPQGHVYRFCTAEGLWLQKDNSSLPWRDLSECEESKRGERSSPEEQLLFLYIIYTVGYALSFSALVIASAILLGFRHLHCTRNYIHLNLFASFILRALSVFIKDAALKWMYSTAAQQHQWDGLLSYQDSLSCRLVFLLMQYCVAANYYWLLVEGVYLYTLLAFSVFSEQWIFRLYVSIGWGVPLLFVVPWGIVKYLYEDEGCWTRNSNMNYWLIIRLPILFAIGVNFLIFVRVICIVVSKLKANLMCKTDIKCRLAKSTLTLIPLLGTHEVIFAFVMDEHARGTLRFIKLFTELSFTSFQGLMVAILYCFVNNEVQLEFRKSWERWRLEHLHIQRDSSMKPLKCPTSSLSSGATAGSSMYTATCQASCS
Chain of human GLP-1R (Homo sapiens, UniProt P43220, G168S) (P43220 24-463 G168S): as the sequence (P43220 24-463 L260F) above, with G145S, F237L counted along it

Structure (SMILES) | EC50 (human GLP-1R [1]) | Emax (human GLP-1R [1]) | EC50 (human GLP-1R [2]) | Emax (human GLP-1R [2])
Cn1c(CN2CCC(c3cccc(OCc4ccc(Cl)cc4)n3)CC2)nc2ccc(C(=O)O)cc21 [Compound 225B, 2-[(4-{6-[(4-chlorobenzyl)oxy]pyridin-2-yl}piperidin-1-yl)methyl]-1-methyl-1H-benzimidazole-6-carboxylic acid] | 12 nM | 75% | 140 nM | 82%
Cn1c(CN2CCC(c3cccc(OCc4ccccc4F)n3)CC2)nc2ccc(C(=O)O)cc21 [Compound 226B, 2-[(4-{6-[(2-fluorobenzyl)oxy]pyridin-2-yl}piperidin-1-yl)methyl]-1-methyl-1H-benzimidazole-6-carboxylic acid] | 2.7 nM | 73% | 29 nM | 74%
Cn1c(CN2CCC(c3cccc(OCc4cccc(F)c4F)n3)CC2)nc2ccc(C(=O)O)cc21 [Compound 227B, 2-[(4-{6-[(2,3-difluorobenzyl)oxy]pyridin-2-yl}piperidin-1-yl)methyl]-1-methyl-1H-benzimidazole-6-carboxylic acid] | 4 nM | 64% | 48 nM | 79%
Cn1c(CN2CCC(c3cccc(OCc4ccc(OC(F)(F)F)cc4)n3)CC2)nc2ccc(C(=O)O)cc21 [Compound 228B, 1-methyl-2-{[4-(6-{[4-(trifluoromethoxy)benzyl]oxy}pyridin-2-yl)piperidin-1-yl]methyl}-1H-benzimidazole-6-carboxylic acid] | 6 nM | 73% | 99 nM | 81%
Cn1c(CN2CCC(c3cccc(OCc4ccccc4OC(F)(F)F)n3)CC2)nc2ccc(C(=O)O)cc21 [Compound 229B, 1-methyl-2-{[4-(6-{[2-(trifluoromethoxy)benzyl]oxy}pyridin-2-yl)piperidin-1-yl]methyl}-1H-benzimidazole-6-carboxylic acid] | 1 nM | 76% | 19 nM | 75%
Cn1c(CN2CCC(c3cccc(OCc4cccc(C#N)c4)n3)CC2)nc2ccc(C(=O)O)cc21 [Compound 231B, 2-[(4-{6-[(3-cyanobenzyl)oxy]pyridin-2-yl}piperidin-1-yl)methyl]-1-methyl-1H-benzimidazole-6-carboxylic acid] | 0.3 nM | 80% | 4.4 nM | 95%
Cn1c(CN2CCC(c3cccc(OCc4ccc(C(F)(F)F)cc4)n3)CC2)nc2ccc(C(=O)O)cc21 [Compound 232B, 1-methyl-2-{[4-(6-{[4-(trifluoromethyl)benzyl]oxy}pyridin-2-yl)piperidin-1-yl]methyl}-1H-benzimidazole-6-carboxylic acid] | 8.6 nM | 64% | 140 nM | 76%
Cn1c(CN2CCC(c3cccc(OCc4cc(F)ccc4F)n3)CC2)nc2ccc(C(=O)O)cc21 [Compound 233B, 2-[(4-{6-[(2,5-difluorobenzyl)oxy]pyridin-2-yl}piperidin-1-yl)methyl]-1-methyl-1H-benzimidazole-6-carboxylic acid] | 0.56 nM | 73% | 9.6 nM | 84%
CCn1cnnc1Cn1c(CN2CCC(c3cccc(OCc4ccc(Cl)cc4F)n3)CC2)nc2ccc(C(=O)O)cc21 [Compound 237B, 2-[(4-{6-[(4-chloro-2-fluorobenzyl)oxy]pyridin-2-yl}piperidin-1-yl)methyl]-1-[(4-ethyl-4H-1,2,4-triazol-3-yl)methyl]-1H-benzimidazole-6-carboxylic acid] | 3.2 nM | 68% | 39 nM | 88%
CN(C)CCn1c(CN2CCC(c3cccc(OCc4ccc(Cl)cc4F)n3)CC2)nc2ccc(C(=O)O)cc21 [Compound 238B, 2-[(4-{6-[(4-chloro-2-fluorobenzyl)oxy]pyridin-2-yl}piperidin-1-yl)methyl]-1-[2-(dimethylamino)ethyl]-1H-benzimidazole-6-carboxylic acid] | 0.71 nM | 81% | 11 nM | 100%
O=C(O)c1ccc2nc(CN3CCC(c4cccc(OCc5ccc(Cl)cc5F)n4)CC3)n(CCN3CCCC3=O)c2c1 [Compound 239B, 2-[(4-{6-[(4-chloro-2-fluorobenzyl)oxy]pyridin-2-yl}piperidin-1-yl)methyl]-1-[2-(2-oxopyrrolidin-1-yl)ethyl]-1H-benzimidazole-6-carboxylic acid] | 1.2 nM | 84% | 24 nM | 98%
C[C@H]1CN(c2cccc(OCc3ccc(C#N)cc3F)n2)CCN1Cc1nc2ccc(C(=O)O)cc2n1Cc1cocn1 [Compound 241B, 2-{[(2S)-4-{6-[(4-cyano-2-fluorobenzyl)oxy]pyridin-2-yl}-2-methylpiperazin-1-yl]methyl}-1-(1,3-oxazol-4-ylmethyl)-1H-benzimidazole-6-carboxylic acid] | 9.4 nM | 69% | 160 nM | 71%
CN1CC(Cn2c(CN3CCC(c4cccc(OCc5ccc(Cl)cc5F)n4)CC3)nc3ccc(C(=O)O)cc32)C1 [Compound 243B, 2-[(4-{6-[(4-chloro-2-fluorobenzyl)oxy]pyridin-2-yl}piperidin-1-yl)methyl]-1-[(1-methylazetidin-3-yl)methyl]-1H-benzimidazole-6-carboxylic acid] | 4.7 nM | 71% | 84 nM | 83%
Cc1nnc(Cn2c(CN3CCC(c4cccc(OCc5ccc(Cl)cc5F)n4)CC3)nc3ccc(C(=O)O)cc32)n1C [Compound 244B, 2-[(4-{6-[(4-chloro-2-fluorobenzyl)oxy]pyridin-2-yl}piperidin-1-yl)methyl]-1-[(4,5-dimethyl-4H-1,2,4-triazol-3-yl)methyl]-1H-benzimidazole-6-carboxylic acid] | 31 nM | 81% | 460 nM | 66%
CCn1cnnc1Cn1c(CN2CCN(c3cccc(OCc4ccc(Cl)cc4F)n3)C[C@@H]2C)nc2ccc(C(=O)O)cc21 [Compound 245B, 2-{[(2S)-4-{6-[(4-chloro-2-fluorobenzyl)oxy]pyridin-2-yl}-2-methylpiperazin-1-yl]methyl}-1-[(4-ethyl-4H-1,2,4-triazol-3-yl)methyl]-1H-benzimidazole-6-carboxylic acid] | 1.5 nM | 74% | 35 nM | 89%
N#Cc1ccc(COc2cccc(C3CCN(Cc4nc5ccc(C(=O)O)nc5n4Cc4cnco4)CC3)n2)c(F)c1 [Compound 248B, 2-[(4-{6-[(4-cyano-2-fluorobenzyl)oxy]pyridin-2-yl}piperidin-1-yl)methyl]-3-(1,3-oxazol-5-ylmethyl)-3H-imidazo[4,5-b]pyridine-5-carboxylic acid] | 2 nM | 82% | 32 nM | 79%
C[C@H]1CN(c2cccc(OCc3ccc(C#N)cc3F)n2)CCN1Cc1nc2ccc(C(=O)O)cc2n1Cc1cncn1C [Compound 249B, 2-{[(2S)-4-{6-[(4-cyano-2-fluorobenzyl)oxy]pyridin-2-yl}-2-methylpiperazin-1-yl]methyl}-1-[(1-methyl-1H-imidazol-5-yl)methyl]-1H-benzimidazole-6-carboxylic acid] | 1.6 nM | 84% | 35 nM | 78%
CC1(Cn2c(CN3CCC(c4cccc(OCc5ccc(Cl)cc5F)n4)CC3)nc3ccc(C(=O)O)cc32)COC1 [Compound 251B, 2-[(4-{6-[(4-chloro-2-fluorobenzyl)oxy]pyridin-2-yl}piperidin-1-yl)methyl]-1-[(3-methyloxetan-3-yl)methyl]-1H-benzimidazole-6-carboxylic acid] | 0.59 nM | 83% | 6.8 nM | 93%
Cc1nnc(CCn2c(CN3CCC(c4cccc(OCc5ccc(Cl)cc5F)n4)CC3)nc3ccc(C(=O)O)cc32)o1 [Compound 253B, 2-[(4-{6-[(4-chloro-2-fluorobenzyl)oxy]pyridin-2-yl}piperidin-1-yl)methyl]-1-[2-(5-methyl-1,3,4-oxadiazol-2-yl)ethyl]-1H-benzimidazole-6-carboxylic acid] | 2 nM | 84% | 20 nM | 87%
Cc1nnc(Cn2c(CN3CCC(c4cccc(OCc5ccc(Cl)cc5F)n4)CC3)nc3ccc(C(=O)O)cc32)o1 [Compound 254B, 2-[(4-{6-[(4-chloro-2-fluorobenzyl)oxy]pyridin-2-yl}piperidin-1-yl)methyl]-1-[(5-methyl-1,3,4-oxadiazol-2-yl)methyl]-1H-benzimidazole-6-carboxylic acid] | 5 nM | 65% | 72 nM | 87%
Cn1cnc(Cn2c(CN3CCC(c4cccc(OCc5ccc(Cl)cc5F)n4)CC3)nc3ccc(C(=O)O)cc32)c1 [Compound 255B, 2-[(4-{6-[(4-chloro-2-fluorobenzyl)oxy]pyridin-2-yl}piperidin-1-yl)methyl]-1-[(1-methyl-1H-imidazol-4-yl)methyl]-1H-benzimidazole-6-carboxylic acid] | 190 nM | 62% | 5800 nM | 85%
Cn1ccnc1Cn1c(CN2CCC(c3cccc(OCc4ccc(Cl)cc4F)n3)CC2)nc2ccc(C(=O)O)cc21 [Compound 256B, 2-[(4-{6-[(4-chloro-2-fluorobenzyl)oxy]pyridin-2-yl}piperidin-1-yl)methyl]-1-[(1-methyl-1H-imidazol-2-yl)methyl]-1H-benzimidazole-6-carboxylic acid] | 3.4 nM | 79% | 53 nM | 68%
